Legend:
PC-3 = assay: NCI growth inhibition and cytotoxicity screen, Prostate Cancer panel; conditions: Homo sapiens; for GI50: PC-3; for CC50: PC-3, read-out: LC50
DU-145 = assay: as above; conditions: Homo sapiens; for GI50: DU-145; for CC50: DU-145, read-out: LC50
HOP-62 = assay: NCI growth inhibition and cytotoxicity screen, Lung Cancer panel; conditions: Homo sapiens; for GI50: HOP-62; for CC50: HOP-62, read-out: LC50
OVCAR-4 = assay: NCI growth inhibition and cytotoxicity screen, Ovarian Cancer panel; conditions: Homo sapiens; for GI50: OVCAR-4; for CC50: OVCAR-4, read-out: LC50
SW-620 = assay: NCI growth inhibition and cytotoxicity screen, Colon Cancer panel; conditions: Homo sapiens; for GI50: SW-620; for CC50: SW-620, read-out: LC50
SK-OV-3 = assay: NCI growth inhibition and cytotoxicity screen, Ovarian Cancer panel; conditions: Homo sapiens; for GI50: SK-OV-3; for CC50: SK-OV-3, read-out: LC50
SNB-19 = assay: NCI growth inhibition and cytotoxicity screen, CNS Cancer panel; conditions: Homo sapiens; for GI50: SNB-19; for CC50: SNB-19, read-out: LC50
M14 = assay: NCI growth inhibition and cytotoxicity screen, Melanoma panel; conditions: Homo sapiens; for GI50: M14; for CC50: M14, read-out: LC50
SNB-75 = assay: NCI growth inhibition and cytotoxicity screen, CNS Cancer panel; conditions: Homo sapiens; for GI50: SNB-75; for CC50: SNB-75, read-out: LC50
OVCAR-8 = assay: NCI growth inhibition and cytotoxicity screen, Ovarian Cancer panel; conditions: Homo sapiens; for GI50: OVCAR-8; for CC50: OVCAR-8, read-out: LC50
HCT-15 = assay: NCI growth inhibition and cytotoxicity screen, Colon Cancer panel; conditions: Homo sapiens; for GI50: HCT-15; for CC50: HCT-15, read-out: LC50
MDA-MB-468 = assay: cells; conditions: Homo sapiens; for GI50: MDA-MB-468; for CC50: MDA-MB-468, read-out: LC50
SR = assay: NCI growth inhibition and cytotoxicity screen, Leukemia panel; conditions: Homo sapiens; for CC50: read-out: LC50
UACC-257 = assay: NCI growth inhibition and cytotoxicity screen, Melanoma panel; conditions: Homo sapiens; for GI50: UACC-257; for CC50: UACC-257, read-out: LC50
HOP-92 = assay: NCI growth inhibition and cytotoxicity screen, Lung Cancer panel; conditions: Homo sapiens; for GI50: HOP-92; for CC50: HOP-92, read-out: LC50
U251 = assay: NCI growth inhibition and cytotoxicity screen, CNS Cancer panel; conditions: Homo sapiens; for GI50: U-251; for CC50: U-251, read-out: LC50
UACC-62 = assay: NCI growth inhibition and cytotoxicity screen, Melanoma panel; conditions: Homo sapiens; for GI50: UACC-62; for CC50: UACC-62, read-out: LC50
HCC-2998 = assay: NCI growth inhibition and cytotoxicity screen, Colon Cancer panel; conditions: Homo sapiens; for GI50: HCC 2998; for CC50: HCC 2998, read-out: LC50
HS 578T = assay: NCI growth inhibition and cytotoxicity screen, Breast Cancer panel; conditions: Homo sapiens; for CC50: read-out: LC50
A549/ATCC = assay: NCI growth inhibition and cytotoxicity screen, Lung Cancer panel; conditions: Homo sapiens; for GI50: A549; for CC50: A549, read-out: LC50
RXF 393 = assay: NCI growth inhibition and cytotoxicity screen, Renal Cancer panel; conditions: Homo sapiens; for GI50: RXF 393; for CC50: RXF 393, read-out: LC50
SN12C = assay: as above; conditions: Homo sapiens; for CC50: read-out: LC50
NCI-H522 = assay: NCI growth inhibition and cytotoxicity screen, Lung Cancer panel; format: cell-based; conditions: Homo sapiens, NCI-H522, Table 1, cell line NCIH522 (Lung Cancer); for CC50: read-out: LC50 (the source's name)
NCI-H460 = assay: as above; conditions: Homo sapiens; for GI50: NCI-H460; for CC50: NCI-H460, read-out: LC50
HCT-116 = assay: NCI growth inhibition and cytotoxicity screen, Colon Cancer panel; conditions: Homo sapiens; for GI50: HCT-116; for CC50: HCT-116, read-out: LC50
SK-MEL-5 = assay: NCI growth inhibition and cytotoxicity screen, Melanoma panel; conditions: Homo sapiens; for GI50: SK-MEL-5; for CC50: SK-MEL-5, read-out: LC50
SF-268 = assay: NCI growth inhibition and cytotoxicity screen, CNS Cancer panel; conditions: Homo sapiens; for GI50: SF-268; for CC50: SF-268, read-out: LC50

SMILES: COc1cc(OC)cc(/C(C#N)=C/c2c[nH]c3ccccc23)c1 [Formula (I)(b)]
- GI50 (PC-3): 75.5 nM
- CC50 (PC-3): > 100000 nM
- GI50 (DU-145): > 100 nM
- CC50 (DU-145): > 100000 nM
- GI50 (HOP-62): > 100 nM
- CC50 (HOP-62): > 100000 nM
- GI50 (OVCAR-4): > 100 nM
- CC50 (OVCAR-4): > 100000 nM
- GI50 (SW-620): 44.1 nM
- CC50 (SW-620): > 100000 nM
- GI50 (SK-OV-3): > 100 nM
- CC50 (SK-OV-3): > 100000 nM
- GI50 (SNB-19): 62.1 nM
- CC50 (SNB-19): > 100000 nM
- GI50 (M14): 42.4 nM
- CC50 (M14): > 100000 nM
- GI50 (SNB-75): 34.8 nM
- CC50 (SNB-75): > 100000 nM
- GI50 (OVCAR-8): > 100 nM
- CC50 (OVCAR-8): > 100000 nM
- GI50 (HCT-15): 53.5 nM
- CC50 (HCT-15): > 100000 nM
- GI50 (MDA-MB-468): > 100 nM
- CC50 (MDA-MB-468): > 100000 nM
- GI50 (SR): 33.4 nM
- CC50 (SR): > 100000 nM
- GI50 (UACC-257): 48.7 nM
- CC50 (UACC-257): > 100000 nM
- GI50 (HOP-92): 68.4 nM
- CC50 (HOP-92): > 100000 nM
- GI50 (U251): 45.4 nM
- CC50 (U251): > 100000 nM
- GI50 (UACC-62): 49.3 nM
- CC50 (UACC-62): > 100000 nM
- GI50 (HCC-2998): > 100 nM
- CC50 (HCC-2998): > 100000 nM
- GI50 (HS 578T): > 100 nM
- CC50 (HS 578T): > 100000 nM
- GI50 (A549/ATCC): 61.8 nM
- CC50 (A549/ATCC): > 100000 nM
- GI50 (RXF 393): 83.7 nM
- CC50 (RXF 393): > 100000 nM
- GI50 (SN12C): 77.9 nM
- CC50 (SN12C): > 100000 nM
- GI50 (NCI-H522): 27.1 nM
- CC50 (NCI-H522): > 100000 nM
- GI50 (NCI-H460): 39.2 nM
- CC50 (NCI-H460): > 100000 nM
- GI50 (HCT-116): 42.5 nM
- CC50 (HCT-116): > 100000 nM
- GI50 (SK-MEL-5): 48.6 nM
- CC50 (SK-MEL-5): > 100000 nM
- GI50 (SF-268): 78.3 nM
- CC50 (SF-268): > 100000 nM

SMILES: COc1cc(/C=C/c2cc3ccccc3o2)cc(OC)c1OC [Formula (I)(c)]
- GI50 (PC-3): 0.52 nM
- CC50 (PC-3): > 100000 nM
- GI50 (DU-145): 1.86 nM
- CC50 (DU-145): > 100000 nM
- GI50 (HOP-62): 0.77 nM
- CC50 (HOP-62): > 100000 nM
- GI50 (OVCAR-4): 1.15 nM
- CC50 (OVCAR-4): > 100000 nM
- GI50 (SW-620): 0.44 nM
- CC50 (SW-620): > 100000 nM
- GI50 (SK-OV-3): 0.65 nM
- CC50 (SK-OV-3): > 100000 nM
- GI50 (SNB-19): 0.58 nM
- CC50 (SNB-19): > 100000 nM
- GI50 (M14): 0.47 nM
- CC50 (M14): 88400 nM
- GI50 (SNB-75): 0.47 nM
- CC50 (SNB-75): > 100000 nM
- GI50 (OVCAR-8): 2.05 nM
- CC50 (OVCAR-8): > 100000 nM
- GI50 (HCT-15): 0.4 nM
- CC50 (HCT-15): > 100000 nM
- GI50 (MDA-MB-468): 0.66 nM
- CC50 (MDA-MB-468): > 100000 nM
- GI50 (SR): 0.09 nM
- CC50 (SR): > 100000 nM
- GI50 (UACC-257): 16.4 nM
- CC50 (UACC-257): > 100000 nM
- GI50 (HOP-92): 0.17 nM
- CC50 (HOP-92): > 100000 nM
- GI50 (U251): 0.66 nM
- CC50 (U251): 81200 nM
- GI50 (UACC-62): 0.5 nM
- CC50 (UACC-62): > 100000 nM
- GI50 (HCC-2998): 3.34 nM
- CC50 (HCC-2998): > 100000 nM
- GI50 (HS 578T): 0.49 nM
- CC50 (HS 578T): > 100000 nM
- GI50 (A549/ATCC): 0.61 nM
- CC50 (A549/ATCC): > 100000 nM
- GI50 (RXF 393): 0.32 nM
- CC50 (RXF 393): > 100000 nM
- GI50 (SN12C): 4.09 nM
- CC50 (SN12C): > 100000 nM
- GI50 (NCI-H522): 0.43 nM
- CC50 (NCI-H522): > 100000 nM
- GI50 (NCI-H460): 0.41 nM
- CC50 (NCI-H460): > 100000 nM
- GI50 (HCT-116): 0.522 nM
- CC50 (HCT-116): 77000 nM
- GI50 (SK-MEL-5): 0.34 nM
- CC50 (SK-MEL-5): 42000 nM
- GI50 (SF-268): 0.86 nM
- CC50 (SF-268): > 100000 nM

SMILES: COc1cc(/C=C/c2nc3ccccc3s2)cc(OC)c1OC [Formula (I)(d)]
- GI50 (PC-3): 0.13 nM
- CC50 (PC-3): > 100000 nM
- GI50 (DU-145): 0.27 nM
- CC50 (DU-145): > 100000 nM
- GI50 (HOP-62): 0.39 nM
- CC50 (HOP-62): 81500 nM
- GI50 (OVCAR-4): 1.81 nM
- CC50 (OVCAR-4): > 100000 nM
- GI50 (SW-620): 0.43 nM
- CC50 (SW-620): > 100000 nM
- GI50 (SK-OV-3): 0.16 nM
- CC50 (SK-OV-3): > 100000 nM
- GI50 (SNB-19): 0.095 nM
- CC50 (SNB-19): > 100000 nM
- GI50 (M14): 0.063 nM
- CC50 (M14): 48500 nM
- GI50 (SNB-75): 0.16 nM
- CC50 (SNB-75): > 100000 nM
- GI50 (OVCAR-8): 0.39 nM
- CC50 (OVCAR-8): > 100000 nM
- GI50 (HCT-15): 0.063 nM
- CC50 (HCT-15): > 100000 nM
- GI50 (MDA-MB-468): 0.82 nM
- CC50 (MDA-MB-468): > 100000 nM
- GI50 (SR): 0.036 nM
- CC50 (SR): > 100000 nM
- GI50 (UACC-257): 15 nM
- CC50 (UACC-257): > 100000 nM
- GI50 (HOP-92): 0.036 nM
- CC50 (HOP-92): 77400 nM
- GI50 (U251): 0.88 nM
- CC50 (U251): > 100000 nM
- GI50 (UACC-62): 0.05 nM
- CC50 (UACC-62): 55900 nM
- GI50 (HCC-2998): 2.23 nM
- CC50 (HCC-2998): 63500 nM
- GI50 (HS 578T): 0.17 nM
- CC50 (HS 578T): > 100000 nM
- GI50 (A549/ATCC): 0.11 nM
- CC50 (A549/ATCC): > 100000 nM
- GI50 (RXF 393): 0.14 nM
- CC50 (RXF 393): 97600 nM
- GI50 (SN12C): 9.37 nM
- CC50 (SN12C): > 100000 nM
- GI50 (NCI-H522): 0.16 nM
- CC50 (NCI-H522): 47900 nM
- GI50 (NCI-H460): 0.11 nM
- CC50 (NCI-H460): > 100000 nM
- GI50 (HCT-116): 0.0072 nM
- CC50 (HCT-116): > 100000 nM
- GI50 (SK-MEL-5): 0.047 nM
- CC50 (SK-MEL-5): 34000 nM
- GI50 (SF-268): 0.56 nM
- CC50 (SF-268): > 100000 nM
